Measured values as given in PubChem BioAssay AID2060489 (Molecular Pharmacology Branch, DTP, NCI, 2025).

Test system: 922993-354-T-J3-PDC complex spheroids, viability
Assay: Anticancer human tumor 922993-354-T-J3-PDC patient-derived endometrial carcinoma cell line growth inhibition [GQUAD]
Settings: for IC50: curve of first compound; for viability, T/C: stronger effect = lower value
Summary of the method: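 Multi-cell-type spheroids of tumor cells with HUVEC and mesenchymal stem cells, treated with drug combinations. Concentrations descend in half-log steps from near clinical Cmax, or from 10 microM where Cmax is unknown; viability read-out.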

[1] = second compound 0.0316 µM, first compound 0.0316 µM
[2] = second compound 0.0316 µM, first compound 0.1 µM
[3] = second compound 0.0316 µM, first compound 0.316 µM
[4] = second compound 0.0316 µM, first compound 1 µM
[5] = second compound 0.0316 µM, first compound 3.16 µM
[6] = second compound 0.0316 µM, first compound 10 µM
[7] = second compound 0.1 µM, first compound 0.0316 µM
[8] = second compound 0.1 µM, first compound 0.1 µM
[9] = second compound 0.1 µM, first compound 0.316 µM
[10] = second compound 0.1 µM, first compound 1 µM
[11] = second compound 0.1 µM, first compound 3.16 µM
[12] = second compound 0.1 µM, first compound 10 µM
[13] = second compound 0.316 µM, first compound 0.0316 µM
[14] = second compound 0.316 µM, first compound 0.1 µM
[15] = second compound 0.316 µM, first compound 0.316 µM
[16] = second compound 0.316 µM, first compound 1 µM
[17] = second compound 0.316 µM, first compound 3.16 µM
[18] = second compound 0.316 µM, first compound 10 µM
[19] = second compound 1 µM, first compound 0.0316 µM
[20] = second compound 1 µM, first compound 0.1 µM
[21] = second compound 1 µM, first compound 0.316 µM
[22] = second compound 1 µM, first compound 1 µM
[23] = second compound 1 µM, first compound 3.16 µM
[24] = second compound 1 µM, first compound 10 µM
[25] = second compound 3.16 µM, first compound 0.0316 µM
[26] = second compound 3.16 µM, first compound 0.1 µM
[27] = second compound 3.16 µM, first compound 0.316 µM
[28] = second compound 3.16 µM, first compound 1 µM
[29] = second compound 3.16 µM, first compound 3.16 µM
[30] = second compound 3.16 µM, first compound 10 µM
[31] = second compound 10 µM, first compound 0.0316 µM
[32] = second compound 10 µM, first compound 0.1 µM
[33] = second compound 10 µM, first compound 0.316 µM
[34] = second compound 10 µM, first compound 1 µM
[35] = second compound 10 µM, first compound 3.16 µM
[36] = second compound 10 µM, first compound 10 µM
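Also: spheroids exposed to compounds for seven days.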
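For viability, T/C in this document: 100% = DMSO vehicle control viability.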

C=CCn1c(=O)c2cnc(Nc3ccc(N4CCN(C)CC4)cc3)nc2n1-c1cccc(C(C)(C)O)n1 + CN(C)c1ccc(Nc2c3ccc(NC(=O)CCN4CCCC4)cc3nc3cc(NC(=O)CCN4CCCC4)ccc23)cc1
IC50 (second compound 0.0316 µM): 4.2 µM
IC50 (second compound 0.1 µM): 4.2 µM
IC50 (second compound 0.316 µM): 4.34 µM
IC50 (second compound 1 µM): 5.26 µM
IC50 (second compound 3.16 µM): 5.16 µM
IC50 (second compound 10 µM): 6.53 µM
viability, T/C [1]: 103%
viability, T/C [2]: 80.9%
viability, T/C [3]: 87.4%
viability, T/C [4]: 74.5%
viability, T/C [5]: 67.7%
viability, T/C [6]: 12.4%
viability, T/C [7]: 95.3%
viability, T/C [8]: 87.1%
viability, T/C [9]: 88%
viability, T/C [10]: 88.6%
viability, T/C [11]: 61.8%
viability, T/C [12]: 13.9%
viability, T/C [13]: 93.6%
viability, T/C [14]: 101%
viability, T/C [15]: 73.2%
viability, T/C [16]: 81.8%
viability, T/C [17]: 65.6%
viability, T/C [18]: 16.9%
viability, T/C [19]: 110%
viability, T/C [20]: 121%
viability, T/C [21]: 95.3%
viability, T/C [22]: 96.5%
viability, T/C [23]: 79.1%
viability, T/C [24]: 17%
viability, T/C [25]: 100%
viability, T/C [26]: 85.5%
viability, T/C [27]: 113%
viability, T/C [28]: 104%
viability, T/C [29]: 74.6%
viability, T/C [30]: 16.6%
viability, T/C [31]: 111%
viability, T/C [32]: 109%
viability, T/C [33]: 108%
viability, T/C [34]: 110%
viability, T/C [35]: 87.2%
viability, T/C [36]: 28.2%

Cc1[nH]c2ccccc2c1CCNCc1ccc(/C=C/C(=O)NO)cc1 + CN(C)c1ccc(Nc2c3ccc(NC(=O)CCN4CCCC4)cc3nc3cc(NC(=O)CCN4CCCC4)ccc23)cc1
IC50 (second compound 0.0316 µM): > 0.316 µM
IC50 (second compound 0.1 µM): > 0.316 µM
IC50 (second compound 0.316 µM): > 0.316 µM
IC50 (second compound 1 µM): > 0.316 µM
IC50 (second compound 3.16 µM): > 0.316 µM
IC50 (second compound 10 µM): > 0.316 µM
viability, T/C (second compound 0.0316 µM, first compound 0.000999 µM): 104%
viability, T/C (second compound 0.0316 µM, first compound 0.00316 µM): 78.9%
viability, T/C (second compound 0.0316 µM, first compound 0.00999 µM): 91.6%
viability, T/C [1]: 67.8%
viability, T/C (second compound 0.0316 µM, first compound 0.0999 µM): 56.4%
viability, T/C [3]: 62.5%
viability, T/C (second compound 0.1 µM, first compound 0.000999 µM): 73.2%
viability, T/C (second compound 0.1 µM, first compound 0.00316 µM): 85.3%
viability, T/C (second compound 0.1 µM, first compound 0.00999 µM): 94.2%
viability, T/C [7]: 86.2%
viability, T/C (second compound 0.1 µM, first compound 0.0999 µM): 78.1%
viability, T/C [9]: 53.1%
viability, T/C (second compound 0.316 µM, first compound 0.000999 µM): 94.5%
viability, T/C (second compound 0.316 µM, first compound 0.00316 µM): 94.4%
viability, T/C (second compound 0.316 µM, first compound 0.00999 µM): 89.1%
viability, T/C [13]: 93%
viability, T/C (second compound 0.316 µM, first compound 0.0999 µM): 73.1%
viability, T/C [15]: 61.7%
viability, T/C (second compound 1 µM, first compound 0.000999 µM): 70.3%
viability, T/C (second compound 1 µM, first compound 0.00316 µM): 95.9%
viability, T/C (second compound 1 µM, first compound 0.00999 µM): 101%
viability, T/C [19]: 76.1%
viability, T/C (second compound 1 µM, first compound 0.0999 µM): 97%
viability, T/C [21]: 59.5%
viability, T/C (second compound 3.16 µM, first compound 0.000999 µM): 101%
viability, T/C (second compound 3.16 µM, first compound 0.00316 µM): 81.4%
viability, T/C (second compound 3.16 µM, first compound 0.00999 µM): 94.8%
viability, T/C [25]: 82.3%
viability, T/C (second compound 3.16 µM, first compound 0.0999 µM): 78.7%
viability, T/C [27]: 57.4%
viability, T/C (second compound 10 µM, first compound 0.000999 µM): 121%
viability, T/C (second compound 10 µM, first compound 0.00316 µM): 118%
viability, T/C (second compound 10 µM, first compound 0.00999 µM): 106%
viability, T/C [31]: 112%
viability, T/C (second compound 10 µM, first compound 0.0999 µM): 110%
viability, T/C [33]: 61.3%

O=C(NO)c1cnc(N2CCN(S(=O)(=O)c3ccc4ccccc4c3)CC2)nc1 + CN(C)c1ccc(Nc2c3ccc(NC(=O)CCN4CCCC4)cc3nc3cc(NC(=O)CCN4CCCC4)ccc23)cc1
IC50 (second compound 0.0316 µM): 0.39 µM
IC50 (second compound 0.1 µM): 0.475 µM
IC50 (second compound 0.316 µM): 0.442 µM
IC50 (second compound 1 µM): 0.448 µM
IC50 (second compound 3.16 µM): 0.682 µM
IC50 (second compound 10 µM): 0.689 µM
viability, T/C [1]: 107%
viability, T/C [2]: 79.2%
viability, T/C [3]: 50%
viability, T/C [4]: 41.5%
viability, T/C [5]: 4.18%
viability, T/C [6]: 0.41%
viability, T/C [7]: 79.9%
viability, T/C [8]: 96.1%
viability, T/C [9]: 56.6%
viability, T/C [10]: 29.6%
viability, T/C [11]: 4.22%
viability, T/C [12]: 0.4%
viability, T/C [13]: 96.5%
viability, T/C [14]: 75%
viability, T/C [15]: 60.8%
viability, T/C [16]: 33.4%
viability, T/C [17]: 4.98%
viability, T/C [18]: 0.4%
viability, T/C [19]: 76.7%
viability, T/C [20]: 76.6%
viability, T/C [21]: 54.5%
viability, T/C [22]: 34.5%
viability, T/C [23]: 3.3%
viability, T/C [24]: 0.44%
viability, T/C [25]: 88.3%
viability, T/C [26]: 95.7%
viability, T/C [27]: 80.9%
viability, T/C [28]: 34.3%
viability, T/C [29]: 4.89%
viability, T/C [30]: 0.4%
viability, T/C [31]: 101%
viability, T/C [32]: 85.6%
viability, T/C [33]: 95.3%
viability, T/C [34]: 29%
viability, T/C [35]: 5.63%
viability, T/C [36]: 0.55%
